One may read the EC50 as the concentration needed to bring the measured effect to its halfway point. Low values mean greater potency, high ones weaker potency. Broadly, the CLint scaled is the rate of metabolic loss divided by the concentration. Usually Kp stands for the ratio of the level in a tissue or fluid to that in plasma or blood.

Each structure is given as a SMILES string.

The target in one series is T1, human M4 (hM4) receptor (Homo sapiens, UniProt P08173).
T1 sequence (P08173 1-479): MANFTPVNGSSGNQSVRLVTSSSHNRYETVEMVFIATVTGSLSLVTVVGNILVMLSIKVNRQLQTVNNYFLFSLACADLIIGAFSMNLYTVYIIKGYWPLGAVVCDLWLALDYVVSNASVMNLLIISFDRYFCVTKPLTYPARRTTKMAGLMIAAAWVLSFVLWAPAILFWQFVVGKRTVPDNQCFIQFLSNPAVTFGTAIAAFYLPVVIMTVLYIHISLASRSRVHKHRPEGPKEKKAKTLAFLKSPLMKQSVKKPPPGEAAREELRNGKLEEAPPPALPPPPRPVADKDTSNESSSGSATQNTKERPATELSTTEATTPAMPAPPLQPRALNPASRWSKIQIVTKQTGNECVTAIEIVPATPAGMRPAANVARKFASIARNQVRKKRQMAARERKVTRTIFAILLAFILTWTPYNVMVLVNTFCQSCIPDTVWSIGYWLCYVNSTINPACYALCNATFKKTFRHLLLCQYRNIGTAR
It is filed as cell-based. The settings on record: for hM4 EC50: hM4/Gqi5-CHO cells, EC20 acetylcholine, n=1 experiment in triplicate; for fold increase in functional M4 potency versus 24e: compared with 24e.

A short description of series [1]: Rat microsomal intrinsic clearance and predicted hepatic clearance. It is filed as in vitro ADME. The conditions noted are these: microsomes.
The nature of series [2]: Human microsomal intrinsic clearance and predicted hepatic clearance. Type of series: in vitro ADME. The conditions noted are these: microsomes.
A short description of another series: Rat plasma:brain level. It is filed as in vivo. The settings on record: SD, brain and plasma, iv, 0.2 mg/kg; for Kp at […]: Kpuu, brain:plasma, SD Rat, 0.2 mg/kg IV.

As to `Cc1cc(C)c2c(n1)sc1c(NCc3ccc(C(C)(C)O)cc3F)ncnc12` [16n], the “fold decrease (loss) in hM4 potency versus 16m” value at human M4 (hM4) receptor (compared with 16m) is recorded as ~ 2.5 fold.

For `Cc1cc(C)c2c(n1)sc1c(NCc3ccc(S(C)(=O)=O)cc3)ncnc12` [16o], the EC50 on human M4 (hM4) receptor was below 350 nM. In addition, the CLint scaled was 176 mL/min/kg in series [1] and 28 mL/min/kg in series [2]. Also, the Kp uu at […] in the series “Rat plasma:brain level” was determined as 0.21.

For the compound `Cc1cc(C)c2c(n1)sc1c(N3CCCC3)ncnc12` [16w], on human M4 (hM4) receptor, the EC50 is below 350 nM. In addition, in series [1], the CLint scaled is 1900 mL/min/kg. Also, the CLint scaled in series [2] was 134 mL/min/kg. For the same compound, in the series “Rat plasma:brain level”, the Kp uu at […] was found to be 0.65 and the Kp at […] was in the range of 0.35 to 0.65.

For `Cc1cc(C)c2c(n1)sc1c(N3CCC3)ncnc12` [16x], the EC50 at human M4 (hM4) receptor is below 350 nM. Moreover, the CLint scaled in series [1] is 741 mL/min/kg; in series [2], 296 mL/min/kg. In “Rat plasma:brain level”, this compound yielded a Kp uu at […] of 0.27.

Turning to `Cc1cc(C)c2c(n1)sc1c(N3CC4(COC4)C3)ncnc12` [16y], in series [1], the CLint scaled is 594 mL/min/kg. In series [2], the CLint scaled is 129 mL/min/kg. In “Rat plasma:brain level”, this compound gave a Kp uu at […] of 0.4 and a Kp at […] of 0.35 to 0.65.

In the case of `Cc1cc(C)c2c(n1)oc1c(N3CCCC3)ncnc12` [17a], on human M4 (hM4) receptor, the “hM4 EC50” value is “complete loss of activity”.

As for `Cc1cc(C)c2c(n1)oc1c(NC3CCC3)ncnc12` [17c], at human M4 (hM4) receptor (compared with 16v), the “fold potency decrease versus 16v” value is recorded as 4.4 fold.

With `COc1ccc(CNc2ncnc3c2oc2nc(C)cc(C)c23)cc1F` [17d], on human M4 (hM4) receptor, the “hM4 EC50” value is recorded as “complete loss of activity”.

As to `Cc1cc(C)c2c(n1)oc1c(NCc3ccc(C(C)(C)O)cc3)ncnc12` [17e], the “hM4 EC50” value at human M4 (hM4) receptor is reported as “complete loss of activity”.

`Cc1cc(C)c2c(n1)oc1c(NC3CN(c4ncc(C(F)(F)F)cn4)C3)ncnc12` [17f]: the “hM4 EC50” value on human M4 (hM4) receptor is recorded as “complete loss of activity”.

On human M4 (hM4) receptor, `Cc1cc(C)c2c(n1)sc1c(NCc3ccc(C(C)(C)O)cc3)nccc12` [18b] displayed an EC50 below 350 nM. Further, on human M4 (hM4) receptor (compared with 16m), the “fold increase in hM4 potency versus 16m” value was ~ 2.8 fold. Further, the values for the intrinsic clearance (CLint scaled) in series [1] and in series [2] were 334 mL/min/kg and 50 mL/min/kg, respectively. In the series “Rat plasma:brain level”, this compound gave a Kp uu at […] of 1.16.

Regarding `Cc1cc(C)c2c(n1)sc1c(NC3CN(c4ncc(C(F)(F)F)cn4)C3)nccc12` [18c], on human M4 (hM4) receptor (compared with 16p), the “fold increase in hM4 potency versus 16p” value is reported as ~ 44 fold.

For `Cc1cc(C)c2c(n1)sc1c(N3CCCC3)nccc12` [18d], the EC50 at human M4 (hM4) receptor is below 350 nM. The CLint scaled was 2100 mL/min/kg in series [1] and 161 mL/min/kg in series [2]. The Kp uu at […] in the series “Rat plasma:brain level” was 4.87.

`Cc1cc(C)c2c(n1)sc1c(NC3CCC3)nccc12` [18g] returned an EC50 at human M4 (hM4) receptor below 350 nM. Besides, the “fold increase in functional hM4 potency versus 16v” value at human M4 (hM4) receptor (compared with 16v) is given as ~ 4 fold. The “fold increase in human M4 activity versus parent compound VU0152100” value at human M4 (hM4) receptor (compared with VU0152100) amounted to 6 fold. The CLint scaled was 3860 mL/min/kg in series [1] and 345 mL/min/kg in series [2]. This compound showed a Kp uu at […] in the series “Rat plasma:brain level” of 4.18.

For the compound `Cc1cc(C)c2c(n1)sc1c(C3CCOCC3)ncnc12` [24d], the “fold increase in hM4 functional potency versus 24a” value at human M4 (hM4) receptor (compared with 24a) is listed as around 45 fold.

For the compound `Cc1cc(C)c2c(n1)sc1c(C3CCNCC3)ncnc12` [24e], the “fold loss of hM4 functional potency versus 24d” value on human M4 (hM4) receptor (compared with 24d) is reported as ~ 40 fold.

With `Cc1cc(C)c2c(n1)sc1c(C3CCN(C(=O)C4CC4)CC3)ncnc12` [28a], the “fold increase in functional M4 potency versus 24e” value at human M4 (hM4) receptor is recorded as ~ 10 fold.

`Cc1cc(C)c2c(n1)sc1c(C3CCN(C(=O)C4(C)CC4)CC3)ncnc12` [28b]: the “fold increase in functional M4 potency versus 24e” value on human M4 (hM4) receptor is 26 fold. Moreover, the CLint scaled in series [1] was 367 mL/min/kg. Further, the CLint scaled in series [2] is 25 mL/min/kg. In addition, in the series “Rat plasma:brain level”, the Kp uu at […] is 0.35 and the Kp at […] was in the range of 0.35 to 0.65.

For the compound `Cc1cc(C)c2c(n1)sc1c(OCc3ccc(C(C)(C)O)cc3)ncnc12` [compound 19], the “fold decrease (loss) in hM4 potency versus 16m” value on human M4 (hM4) receptor (compared with 16m) was determined as 9.6 fold.

For `Cc1cc(C)c2c(n1)sc1c(C3CCN(c4cncc(F)c4)CC3)ncnc12` [compound 26], the “hM4 EC50” value on human M4 (hM4) receptor is given as “complete loss of activity”.

For the compound `Cc1cc(C)c2c(n1)sc1c(C3CCN(CC4CC4)CC3)ncnc12` [compound 30], the “hM4 EC50” value at human M4 (hM4) receptor is listed as “complete loss of M4 potency”.

The record behind these values is paper PMC8648000 (Bioorganic & medicinal chemistry letters, 2021).
